Tests used:
Format in all cases: cell-based
Conditions in all cases: compounds at 50 nM and 500 nM
[1] = biological target: T1, IKZF2 (Homo sapiens, UniProt Q96SW2+Q9UKS7); experiment: Western blot degradation of IKZF2 in hPBMCs (24 h)
T1 construct: The supernatant was aspirated as the extracted total cell protein; endogenous in cells; host or cells: human peripheral blood mononuclear cells (hPBMCs)
Procedure: (§1) Conventional Western blot assay was performed to evaluate the effects of the compounds of the present disclosure on the expression of target proteins in cells. • (1) Cell Seeding and Protein Harvesting: Human peripheral blood mononuclear cells (hPBMCs) at a density of 1×10^6 cells/mL were thawed according to the PBMC Recovery Protocol (Milecell Biotechnologies Inc, Shanghai). The cells were then treated with the compounds of the present disclosure (including the compounds listed in Table 1, and the Examples 1-498 compounds) at concentrations of 50 nM and 500 nM. Controls included a negative control (DMSO) and a positive control (the commercial immunomodulatory drug lenalidomide), both processed following the identical experimental protocol as the compounds of the present disclosure. After 24 hours of compounds treatment, cells were harvested and lysed in RIPA protein lysate containing protease inhibitors on ice for 30 min, followed by centrifugation. The supernatant was aspirated as the extracted total cell protein. The protein concentration of the supernatant was determined using the conventional BCA (Bicinchoninic Acid) assay. • (2) To the collected supernatant, 5×SDS sample loading buffer was added, followed by denaturation at 95 °C for 5 minutes. The denatured samples were then separated by SDS-PAGE electrophoresis on a polyacrylamide gel. Proteins were transferred to a nitrocellulose membrane (0.45 μm NC membrane), blocked with blocking buffer at room temperature for 1 hour, and subjected to antibody incubation and development procedures according to the antibody manufacturer's instructions (Cell Signaling Technology).
(§2) Half-Maximal Degradation Concentration value (the drug concentration required for degrading proteins by 50%, abbreviated as DC50) reads method: comparing the grayscale values of Western blot bands from drug-treated samples with those from blank DMSO-treated controls, and identifying the drug concentration range at which the grayscale value is half that of the DMSO-treated control bands.
(§3) DC50 values can be calculated using ImageJ software to measure grayscale values of Western blot bands from drug-treated samples. The concentration-response curve is fitted to estimate the drug concentration corresponding to half the grayscale value.
(§4) Target protein remaining (%) refers to the percentage of target protein remaining in cells after treatment with protein degrader compounds.
(§5) Calculation method for target protein remaining (%): Use ImageJ software to measure grayscale values of Western blot bands from drug (protein degrader)-treated samples. The grayscale value of drug-treated bands is divided by that of internal control protein bands, and the resulting quotient is normalized to obtain the relative percentage of remaining target protein after protein degrader treatment.
(§6) Target protein degradation rate (%)=1−target protein remaining (%).

[2] = biological target: T2, IKZF1 (Homo sapiens, UniProt Q13422+Q96SW2); experiment: Western blot degradation of IKZF1 in hPBMCs (24 h)
T2 construct: The supernatant was aspirated as the extracted total cell protein; endogenous in cells; host or cells: human peripheral blood mononuclear cells (hPBMCs)
T2 sequence (Q13422 whole entry): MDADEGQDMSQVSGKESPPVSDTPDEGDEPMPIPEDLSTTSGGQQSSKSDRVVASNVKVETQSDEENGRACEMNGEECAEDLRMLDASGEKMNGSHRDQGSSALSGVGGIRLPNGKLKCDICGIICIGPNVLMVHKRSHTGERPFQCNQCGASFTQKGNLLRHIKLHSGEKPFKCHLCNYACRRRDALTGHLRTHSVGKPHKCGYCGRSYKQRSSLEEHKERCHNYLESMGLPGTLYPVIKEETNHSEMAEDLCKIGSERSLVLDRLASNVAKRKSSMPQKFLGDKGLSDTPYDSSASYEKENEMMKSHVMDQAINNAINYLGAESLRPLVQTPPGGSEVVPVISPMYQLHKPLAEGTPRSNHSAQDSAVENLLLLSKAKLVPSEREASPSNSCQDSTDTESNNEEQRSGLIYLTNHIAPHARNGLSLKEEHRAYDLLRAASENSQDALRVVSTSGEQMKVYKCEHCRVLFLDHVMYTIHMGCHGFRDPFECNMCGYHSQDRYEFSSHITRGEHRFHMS
T2 sequence (Q96SW2 whole entry): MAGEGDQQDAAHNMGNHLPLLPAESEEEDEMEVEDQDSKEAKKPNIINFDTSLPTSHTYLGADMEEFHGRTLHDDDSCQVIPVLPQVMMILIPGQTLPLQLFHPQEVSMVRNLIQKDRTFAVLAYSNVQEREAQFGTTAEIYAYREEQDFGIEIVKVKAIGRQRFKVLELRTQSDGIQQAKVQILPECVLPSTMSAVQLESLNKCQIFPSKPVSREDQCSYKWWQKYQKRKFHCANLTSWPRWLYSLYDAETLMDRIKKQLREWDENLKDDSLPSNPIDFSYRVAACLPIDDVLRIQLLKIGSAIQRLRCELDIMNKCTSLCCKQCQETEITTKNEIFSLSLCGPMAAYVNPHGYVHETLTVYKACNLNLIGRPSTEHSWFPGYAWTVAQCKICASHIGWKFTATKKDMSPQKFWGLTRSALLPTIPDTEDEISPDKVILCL
T2 sequence (Q16531 whole entry partner): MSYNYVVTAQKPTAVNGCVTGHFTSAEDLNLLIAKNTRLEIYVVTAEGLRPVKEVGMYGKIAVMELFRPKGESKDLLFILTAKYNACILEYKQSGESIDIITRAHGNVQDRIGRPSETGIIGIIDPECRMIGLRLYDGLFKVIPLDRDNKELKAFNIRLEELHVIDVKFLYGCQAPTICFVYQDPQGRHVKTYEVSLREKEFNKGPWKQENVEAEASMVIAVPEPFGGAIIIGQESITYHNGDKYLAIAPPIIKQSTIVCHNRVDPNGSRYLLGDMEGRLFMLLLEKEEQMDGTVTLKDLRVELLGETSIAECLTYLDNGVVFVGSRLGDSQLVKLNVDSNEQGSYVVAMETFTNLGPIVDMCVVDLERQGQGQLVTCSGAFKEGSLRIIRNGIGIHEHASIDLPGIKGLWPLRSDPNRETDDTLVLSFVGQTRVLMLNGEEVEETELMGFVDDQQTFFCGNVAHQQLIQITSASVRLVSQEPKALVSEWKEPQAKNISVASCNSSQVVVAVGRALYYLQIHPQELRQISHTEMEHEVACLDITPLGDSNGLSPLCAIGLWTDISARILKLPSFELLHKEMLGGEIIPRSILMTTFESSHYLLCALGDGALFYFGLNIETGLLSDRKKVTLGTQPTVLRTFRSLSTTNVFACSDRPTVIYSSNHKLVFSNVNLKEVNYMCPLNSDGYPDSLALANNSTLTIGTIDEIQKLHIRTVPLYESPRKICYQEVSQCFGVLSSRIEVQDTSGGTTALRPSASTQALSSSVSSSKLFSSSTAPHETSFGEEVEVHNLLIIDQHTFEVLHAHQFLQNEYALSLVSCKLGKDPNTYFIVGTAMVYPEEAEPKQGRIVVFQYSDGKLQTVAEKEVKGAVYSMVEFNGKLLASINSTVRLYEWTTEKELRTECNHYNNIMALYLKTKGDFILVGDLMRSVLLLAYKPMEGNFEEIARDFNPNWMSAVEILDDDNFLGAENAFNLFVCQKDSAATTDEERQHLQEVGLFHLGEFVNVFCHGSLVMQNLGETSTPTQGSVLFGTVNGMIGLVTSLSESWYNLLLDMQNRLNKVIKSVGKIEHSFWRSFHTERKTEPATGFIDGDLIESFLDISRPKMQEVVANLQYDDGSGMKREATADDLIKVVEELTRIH
Procedure: as §1, §2, §3, §4, §5, §6

[3] = biological target: T3, IKZF3 (Homo sapiens, UniProt Q96SW2+Q9UKT9); experiment: Western blot degradation of IKZF3 in hPBMCs (24 h)
T3 construct: The supernatant was aspirated as the extracted total cell protein; endogenous in cells; host or cells: human peripheral blood mononuclear cells (hPBMCs)
T3 sequence (Q9UKT9 whole entry): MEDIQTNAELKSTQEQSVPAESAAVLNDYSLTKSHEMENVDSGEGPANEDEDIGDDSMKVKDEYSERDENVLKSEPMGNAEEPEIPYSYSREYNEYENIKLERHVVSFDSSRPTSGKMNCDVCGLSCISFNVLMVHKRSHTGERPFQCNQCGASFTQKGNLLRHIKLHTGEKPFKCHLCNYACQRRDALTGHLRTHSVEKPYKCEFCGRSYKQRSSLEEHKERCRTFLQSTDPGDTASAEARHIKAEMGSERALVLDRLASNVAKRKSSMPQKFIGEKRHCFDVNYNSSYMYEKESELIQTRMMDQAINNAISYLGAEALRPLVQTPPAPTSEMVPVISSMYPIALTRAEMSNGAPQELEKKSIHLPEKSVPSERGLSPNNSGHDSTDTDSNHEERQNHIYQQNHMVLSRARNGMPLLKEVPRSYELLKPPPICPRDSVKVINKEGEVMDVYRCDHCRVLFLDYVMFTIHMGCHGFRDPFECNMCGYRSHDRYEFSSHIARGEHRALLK
T3 sequence (Q96SW2 whole entry): as the sequence (Q96SW2 whole entry) above
T3 sequence (Q16531 whole entry partner): as the sequence (Q16531 whole entry partner) above
Procedure: as §1, §2, §3, §4, §5, §6

[4] = biological target: T4, CK1α (Homo sapiens, UniProt P48729+Q96SW2); experiment: Western blot degradation of CK1α in hPBMCs (24 h)
T4 construct: The supernatant was aspirated as the extracted total cell protein; endogenous in cells; host or cells: human peripheral blood mononuclear cells (hPBMCs)
Procedure: as §1, §2, §3, §4, §5, §6

[5] = biological target: T5, GSPT1 (Homo sapiens, UniProt P15170+Q96SW2); experiment: Western blot degradation of GSPT1 in hPBMCs (24 h)
T5 construct: The supernatant was aspirated as the extracted total cell protein; endogenous in cells; host or cells: human peripheral blood mononuclear cells (hPBMCs)
T5 sequence (P15170 whole entry): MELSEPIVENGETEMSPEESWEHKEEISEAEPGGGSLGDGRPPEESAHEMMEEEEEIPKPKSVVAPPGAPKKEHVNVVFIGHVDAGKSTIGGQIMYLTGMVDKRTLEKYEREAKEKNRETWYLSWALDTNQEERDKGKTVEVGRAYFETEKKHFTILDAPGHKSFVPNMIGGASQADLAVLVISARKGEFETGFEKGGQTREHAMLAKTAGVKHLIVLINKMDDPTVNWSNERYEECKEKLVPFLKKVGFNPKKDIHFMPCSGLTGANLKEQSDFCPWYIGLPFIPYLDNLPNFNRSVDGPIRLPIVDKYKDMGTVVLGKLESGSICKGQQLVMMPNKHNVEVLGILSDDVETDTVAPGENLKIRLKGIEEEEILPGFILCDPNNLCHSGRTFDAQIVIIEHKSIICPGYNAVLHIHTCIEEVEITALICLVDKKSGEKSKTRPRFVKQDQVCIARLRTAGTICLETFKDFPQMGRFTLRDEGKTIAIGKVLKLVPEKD
T5 sequence (Q96SW2 whole entry): as the sequence (Q96SW2 whole entry) above
T5 sequence (Q16531 whole entry partner): as the sequence (Q16531 whole entry partner) above
Procedure: as §1, §2, §3, §4, §5, §6

[6] = biological target: T6, WEE1 (Homo sapiens, UniProt P30291+Q96SW2); experiment: Western blot degradation of WEE1 in hPBMCs (24 h)
T6 construct: The supernatant was aspirated as the extracted total cell protein; endogenous in cells; host or cells: human peripheral blood mononuclear cells (hPBMCs)
T6 sequence (P30291 whole entry): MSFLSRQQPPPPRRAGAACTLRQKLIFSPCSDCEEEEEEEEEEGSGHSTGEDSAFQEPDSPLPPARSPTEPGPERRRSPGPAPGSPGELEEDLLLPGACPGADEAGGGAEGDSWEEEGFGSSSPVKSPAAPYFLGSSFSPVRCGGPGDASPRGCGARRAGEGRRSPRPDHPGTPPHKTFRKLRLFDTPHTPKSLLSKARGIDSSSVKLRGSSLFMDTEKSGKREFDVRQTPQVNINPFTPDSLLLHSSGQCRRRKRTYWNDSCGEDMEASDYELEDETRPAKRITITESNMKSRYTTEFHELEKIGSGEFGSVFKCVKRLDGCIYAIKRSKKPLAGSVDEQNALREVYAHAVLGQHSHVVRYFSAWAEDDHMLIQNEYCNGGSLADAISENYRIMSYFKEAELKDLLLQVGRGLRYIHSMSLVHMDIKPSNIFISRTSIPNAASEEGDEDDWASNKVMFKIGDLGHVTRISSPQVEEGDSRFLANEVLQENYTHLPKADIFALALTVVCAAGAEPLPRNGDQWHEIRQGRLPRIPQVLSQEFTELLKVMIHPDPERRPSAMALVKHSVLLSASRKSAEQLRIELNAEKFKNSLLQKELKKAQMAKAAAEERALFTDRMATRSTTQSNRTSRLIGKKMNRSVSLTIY
T6 sequence (Q96SW2 whole entry): as the sequence (Q96SW2 whole entry) above
T6 sequence (Q16531 whole entry partner): as the sequence (Q16531 whole entry partner) above
Procedure: as §1, §2, §3, §4, §5, §6

T1 sequence (Q9UKS7 whole entry): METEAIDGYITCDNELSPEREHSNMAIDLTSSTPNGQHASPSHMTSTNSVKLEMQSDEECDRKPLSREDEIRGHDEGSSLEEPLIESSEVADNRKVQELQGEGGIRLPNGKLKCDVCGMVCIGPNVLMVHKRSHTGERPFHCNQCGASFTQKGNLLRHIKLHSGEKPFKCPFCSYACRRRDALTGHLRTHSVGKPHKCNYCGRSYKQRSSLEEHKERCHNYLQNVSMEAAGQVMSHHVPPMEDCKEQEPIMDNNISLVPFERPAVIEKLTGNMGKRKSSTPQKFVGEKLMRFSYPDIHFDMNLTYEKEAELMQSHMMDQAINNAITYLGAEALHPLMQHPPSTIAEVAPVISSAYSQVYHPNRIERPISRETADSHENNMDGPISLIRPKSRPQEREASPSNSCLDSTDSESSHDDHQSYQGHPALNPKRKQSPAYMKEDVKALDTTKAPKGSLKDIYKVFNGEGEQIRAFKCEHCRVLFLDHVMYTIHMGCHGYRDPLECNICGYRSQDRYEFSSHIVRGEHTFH
T1 sequence (Q96SW2 whole entry): as the sequence (Q96SW2 whole entry) above
T1 sequence (Q16531 whole entry partner): as the sequence (Q16531 whole entry partner) above

For `Cc1cc(N2CCN(Cc3ccc4c(c3)CN(N3CCC(=O)NC3=O)C4=O)CC2)cs1` [GT-05087, 1-(5-((4-(5-methylthiophen-3-yl)piperazin-1-yl)methyl)-1-oxoisoindolin-2-yl)dihydropyrimidine-2,4(1H,3H)-dione], the “IKZF2 substrate protein remaining %” value [1] was “B (80%< substrate protein remaining % ≤100%)”, the “IKZF1 substrate protein remaining %” value [2] was “B (80%< substrate protein remaining % ≤100%)” and the “IKZF3 substrate protein remaining %” value [3] was “B (80%< substrate protein remaining % ≤100%)”. The “CK1α substrate protein remaining %” value [4] was “B (80%< substrate protein remaining % ≤100%)”, the “GSPT1 substrate protein remaining %” value [5] was “A (0% ≤ substrate protein remaining % ≤80%)” and the “WEE1 substrate protein remaining %” value [6] was “B (80%< substrate protein remaining % ≤100%)”.
With `Cc1cccc(N2CCN(Cc3ccc4c(c3)CN(N3CCC(=O)NC3=O)C4=O)CC2)n1` [GT-05125, 1-(5-((4-(6-methylpyridin-2-yl)piperazin-1-yl)methyl)-1-oxoisoindolin-2-yl)dihydropyrimidine-2,4(1H,3H)-dione] the “IKZF2 substrate protein remaining %” value [1] was “B (80%< substrate protein remaining % ≤100%)”, the “IKZF1 substrate protein remaining %” value [2] was “A (0% ≤ substrate protein remaining % ≤80%)” and the “IKZF3 substrate protein remaining %” value [3] was “A (0% ≤ substrate protein remaining % ≤80%)”. For the same molecule, the “CK1α substrate protein remaining %” value [4] was “A (0% ≤ substrate protein remaining % ≤80%)”, the “GSPT1 substrate protein remaining %” value [5] was “A (0% ≤ substrate protein remaining % ≤80%)” and the “WEE1 substrate protein remaining %” value [6] was “A (0% ≤ substrate protein remaining % ≤80%)”.
For `O=C1CCN(N2Cc3cc(CN4CCN(c5cc(Cl)ccn5)CC4)ccc3C2=O)C(=O)N1` [GT-05128, 1-(5-((4-(4-chloropyridin-2-yl)piperazin-1-yl)methyl)-1-oxoisoindolin-2-yl)dihydropyrimidine-2,4(1H,3H)-dione], the “IKZF2 substrate protein remaining %” value [1] was “A (0% ≤ substrate protein remaining % ≤80%)”, the “IKZF1 substrate protein remaining %” value [2] was “A (0% ≤ substrate protein remaining % ≤80%)” and the “IKZF3 substrate protein remaining %” value [3] was “A (0% ≤ substrate protein remaining % ≤80%)”. The “CK1α substrate protein remaining %” value [4] was “A (0% ≤ substrate protein remaining % ≤80%)”, the “GSPT1 substrate protein remaining %” value [5] was “A (0% ≤ substrate protein remaining % ≤80%)” and the “WEE1 substrate protein remaining %” value [6] was “A (0% ≤ substrate protein remaining % ≤80%)”.
`O=C1CCN(N2Cc3cc(CN4CCN(c5ncccc5F)CC4)ccc3C2=O)C(=O)N1` [GT-05129, 1-(5-((4-(3-fluoropyridin-2-yl)piperazin-1-yl)methyl)-1-oxoisoindolin-2-yl)dihydropyrimidine-2,4(1H,3H)-dione] was tested, and the “IKZF2 substrate protein remaining %” value [1] was “A (0% ≤ substrate protein remaining % ≤80%)”, the “IKZF1 substrate protein remaining %” value [2] was “A (0% ≤ substrate protein remaining % ≤80%)” and the “IKZF3 substrate protein remaining %” value [3] was “A (0% ≤ substrate protein remaining % ≤80%)”. The “CK1α substrate protein remaining %” value [4] was “A (0% ≤ substrate protein remaining % ≤80%)”, the “GSPT1 substrate protein remaining %” value [5] was “A (0% ≤ substrate protein remaining % ≤80%)” and the “WEE1 substrate protein remaining %” value [6] was “A (0% ≤ substrate protein remaining % ≤80%)”.
For `O=C1CCN(N2Cc3cc(CN4CCN(c5cccc(F)n5)CC4)ccc3C2=O)C(=O)N1` [GT-05130, 1-(5-((4-(6-fluoropyridin-2-yl)piperazin-1-yl)methyl)-1-oxoisoindolin-2-yl)dihydropyrimidine-2,4(1H,3H)-dione], the “IKZF2 substrate protein remaining %” value [1] was “A (0% ≤ substrate protein remaining % ≤80%)”, the “IKZF1 substrate protein remaining %” value [2] was “A (0% ≤ substrate protein remaining % ≤80%)” and the “IKZF3 substrate protein remaining %” value [3] was “A (0% ≤ substrate protein remaining % ≤80%)”. For the same molecule, the “CK1α substrate protein remaining %” value [4] was “A (0% ≤ substrate protein remaining % ≤80%)”, the “GSPT1 substrate protein remaining %” value [5] was “A (0% ≤ substrate protein remaining % ≤80%)” and the “WEE1 substrate protein remaining %” value [6] was “A (0% ≤ substrate protein remaining % ≤80%)”.
With `O=C1CCN(N2Cc3cc(CN4CCN(c5ccc(F)cn5)CC4)ccc3C2=O)C(=O)N1` [GT-05131, 1-(5-((4-(5-fluoropyridin-2-yl)piperazin-1-yl)methyl)-1-oxoisoindolin-2-yl)dihydropyrimidine-2,4(1H,3H)-dione] the “IKZF2 substrate protein remaining %” value [1] was “A (0% ≤ substrate protein remaining % ≤80%)”, the “IKZF1 substrate protein remaining %” value [2] was “A (0% ≤ substrate protein remaining % ≤80%)” and the “IKZF3 substrate protein remaining %” value [3] was “A (0% ≤ substrate protein remaining % ≤80%)”. The “CK1α substrate protein remaining %” value [4] was “A (0% ≤ substrate protein remaining % ≤80%)”, the “GSPT1 substrate protein remaining %” value [5] was “A (0% ≤ substrate protein remaining % ≤80%)” and the “WEE1 substrate protein remaining %” value [6] was “A (0% ≤ substrate protein remaining % ≤80%)”.
For `O=C1CCN(N2Cc3cc(CN4C5CC4CN(c4cccc(Cl)c4Cl)C5)ccc3C2=O)C(=O)N1` [GT-05162, 1-(5-((3-(2,3-dichlorophenyl)-3,6-diazabicyclo[3.1.1]heptan-6-yl)methyl)-1-oxoisoindolin-2-yl)dihydropyrimidine-2,4(1H,3H)-dione], the “IKZF2 substrate protein remaining %” value [1] was “B (80%< substrate protein remaining % ≤100%)”, the “IKZF1 substrate protein remaining %” value [2] was “B (80%< substrate protein remaining % ≤100%)” and the “IKZF3 substrate protein remaining %” value [3] was “A (0% ≤ substrate protein remaining % ≤80%)”. For the same molecule, the “CK1α substrate protein remaining %” value [4] was “B (80%< substrate protein remaining % ≤100%)”, the “GSPT1 substrate protein remaining %” value [5] was “A (0% ≤ substrate protein remaining % ≤80%)” and the “WEE1 substrate protein remaining %” value [6] was “B (80%< substrate protein remaining % ≤100%)”.
With `O=C1CCN(N2C(=O)c3ccc(CN4CCC(N(c5ccccc5)c5ccccc5)CC4)cc3C2=O)C(=O)N1` [GT-05177, 2-(2,4-dioxotetrahydropyrimidin-1(2H)-yl)-5-((4-(diphenylamino)piperidin-1-yl)methyl)isoindoline-1,3-dione] the “IKZF2 substrate protein remaining %” value [1] was “B (80%< substrate protein remaining % ≤100%)”, the “IKZF1 substrate protein remaining %” value [2] was “B (80%< substrate protein remaining % ≤100%)” and the “IKZF3 substrate protein remaining %” value [3] was “B (80%< substrate protein remaining % ≤100%)”. For the same molecule, the “CK1α substrate protein remaining %” value [4] was “B (80%< substrate protein remaining % ≤100%)”, the “GSPT1 substrate protein remaining %” value [5] was “A (0% ≤ substrate protein remaining % ≤80%)” and the “WEE1 substrate protein remaining %” value [6] was “B (80%< substrate protein remaining % ≤100%)”.
`O=C1CCN(N2C(=O)c3ccc(CN4CCC(Nc5ccccc5-c5ccc(Cl)cc5)CC4)cc3C2=O)C(=O)N1` [GT-05179, 5-((4-((4′-chloro-[1,1′-biphenyl]-2-yl)amino)piperidin-1-yl)methyl)-2-(2,4-dioxotetrahydropyrimidin-1(2H)-yl)isoindoline-1,3-dione] was tested, and the “IKZF2 substrate protein remaining %” value [1] was “B (80%< substrate protein remaining % ≤100%)”, the “IKZF1 substrate protein remaining %” value [2] was “B (80%< substrate protein remaining % ≤100%)” and the “IKZF3 substrate protein remaining %” value [3] was “B (80%< substrate protein remaining % ≤100%)”. The “CK1α substrate protein remaining %” value [4] was “B (80%< substrate protein remaining % ≤100%)”, the “GSPT1 substrate protein remaining %” value [5] was “B (80%< substrate protein remaining % ≤100%)” and the “WEE1 substrate protein remaining %” value [6] was “A (0% ≤ substrate protein remaining % ≤80%)”.

— patent US20260356819A1, “OXOISOINDOLINYL-SUBSTITUTED […] DERIVATIVE AND USE THEREOF” (GLUETACS THERAPEUTICS (SHANGHAI) CO., LTD., priority 2023, published 2026)
